Laboratory results as given in ChEMBL document CHEMBL1201862, “PubChem BioAssay data set” (2004).
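96-well plates; 48 h exposure; 5 concentrations. Endpoints by linear interpolation between flanking doses. Not reached: highest tested concentration assigned. GI50 = concentration required for 50% inhibition of growth.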 Activity calls are given as the source filed them. Cut-off read from the data, not from the text of the source: active = GI50 up to about 1.1 µM and inactive = higher.

Assays:
Assay in all cases: growth of human tumour cells (NCI), 48 h
SK-MEL-28 = test system: SK-MEL-28
MCF7 = test system: MCF7
RXF 393 = test system: RXF 393
Hs-578T = test system: Hs-578T
ACHN = test system: ACHN
IGROV-1 = test system: IGROV-1
PC-3 = test system: PC-3
SK-OV-3 = test system: SK-OV-3
LOX IMVI = test system: LOX IMVI
SR = test system: SR
KM12 = test system: KM12
CCRF-CEM = test system: CCRF-CEM
UACC-257 = test system: UACC-257
MOLT-4 = test system: MOLT-4
DU-145 = test system: DU-145
EKVX = test system: EKVX
OVCAR-8 = test system: OVCAR-8
BT-549 = test system: BT-549
HT-29 = test system: HT-29
NCI/ADR-RES = test system: NCI/ADR-RES

Row | Compound | GI50 (SK-MEL-28) | GI50 (MCF7) | GI50 (RXF 393) | GI50 (Hs-578T) | GI50 (ACHN) | GI50 (IGROV-1) | GI50 (PC-3) | GI50 (SK-OV-3) | GI50 (LOX IMVI) | GI50 (SR) | GI50 (KM12) | GI50 (CCRF-CEM) | GI50 (UACC-257) | GI50 (MOLT-4) | GI50 (DU-145) | GI50 (EKVX) | GI50 (OVCAR-8) | GI50 (BT-549) | GI50 (HT-29) | GI50 (NCI/ADR-RES)
1 | CCC1=C(C=O)c2cc3[nH]c(cc4nc(c5c6[nH]c(cc1n2)c(C)c6C(=O)C5C(=O)OC)C(CCC(=O)OC)C4C)c(C)c3CC (centres undefined) | > 100 µM (inactive) | > 100 µM (inactive) | > 100 µM (inactive) | 88.1 µM (inactive) | > 100 µM (inactive) | > 100 µM (inactive) | > 100 µM (inactive) | > 100 µM (inactive) | > 100 µM (inactive) | > 100 µM (inactive) | > 100 µM (inactive) | > 100 µM (inactive) | > 100 µM (inactive) | > 100 µM (inactive) | > 100 µM (inactive) | > 100 µM (inactive) | > 100 µM (inactive) | > 100 µM (inactive) | > 100 µM (inactive) | 
2 | CC(=O)CC(=O)N1CCSC1=S | > 10 µM (inactive) | > 10 µM (inactive) | > 10 µM (inactive) | > 10 µM (inactive) | > 10 µM (inactive) | > 10 µM (inactive) | > 10 µM (inactive) | > 10 µM (inactive) | > 10 µM (inactive) | > 10 µM (inactive) | > 10 µM (inactive) | > 10 µM (inactive) | > 10 µM (inactive) | > 10 µM (inactive) | > 10 µM (inactive) | > 10 µM (inactive) | > 10 µM (inactive) | > 10 µM (inactive) | > 10 µM (inactive) | 
3 | O=S(=O)(SC1=NCCN1)c1ccc2ccccc2c1 | 34.8 µM (inactive) | 29.4 µM (inactive) | 24.3 µM (inactive) | 35.6 µM (inactive) | 39.5 µM (inactive) | 31 µM (inactive) | 30.7 µM (inactive) | 22.6 µM (inactive) | 31.4 µM (inactive) |  | 20.2 µM (inactive) | 21 µM (inactive) | 39.4 µM (inactive) | 24.8 µM (inactive) | 32 µM (inactive) | 33.2 µM (inactive) | 20.7 µM (inactive) | 24.5 µM (inactive) | 20 µM (inactive) | 21.8 µM (inactive)
4 | Cc1cccc(O)c1-c1nnc(CCCCCCCCc2nnc(-c3c(C)cccc3O)n2N)n1N | > 50.2 µM (inactive) | 55 µM (inactive) |  | 39.9 µM (inactive) | > 85.7 µM (inactive) | > 100 µM (inactive) | > 100 µM (inactive) | > 60.5 µM (inactive) | 45.2 µM (inactive) | 19.1 µM (inactive) | 95.1 µM (inactive) | 0.929 µM (active) | > 100 µM (inactive) | 8.41 µM (inactive) | > 100 µM (inactive) | > 67.3 µM (inactive) | 1.86 µM (inactive) | 15 µM (inactive) | > 100 µM (inactive) | 
5 | COC(=O)C1=Nc2c(C)nn(-c3ccccc3)c2N=C(c2ccc(C)cc2)C1 | > 10 µM (inactive) | > 10 µM (inactive) |  | > 10 µM (inactive) | > 10 µM (inactive) | > 10 µM (inactive) | > 10 µM (inactive) | > 10 µM (inactive) | > 10 µM (inactive) | > 10 µM (inactive) | > 10 µM (inactive) |  | > 10 µM (inactive) | > 10 µM (inactive) | > 10 µM (inactive) |  | > 10 µM (inactive) | > 10 µM (inactive) | > 10 µM (inactive) | > 10 µM (inactive)
6 | O=C(Cn1c2ccc(Br)cc2c2nc3ccccc3nc21)N/N=C/c1ccccc1 | > 100 µM (inactive) | > 100 µM (inactive) | 34.9 µM (inactive) |  | > 100 µM (inactive) | > 100 µM (inactive) | > 100 µM (inactive) | 31.1 µM (inactive) |  | 78.2 µM (inactive) | > 100 µM (inactive) |  | > 100 µM (inactive) | > 10 µM (inactive) | > 100 µM (inactive) | > 100 µM (inactive) | > 100 µM (inactive) | > 100 µM (inactive) | > 100 µM (inactive) | > 100 µM (inactive)
7 | Clc1nss/c1=N/c1nonc1-c1ccccc1 | 48.1 µM (inactive) | 22.7 µM (inactive) | 29.2 µM (inactive) |  | 18.6 µM (inactive) | 26.4 µM (inactive) | 38.3 µM (inactive) | > 100 µM (inactive) | 27.3 µM (inactive) | 18.4 µM (inactive) | 31 µM (inactive) | 17.9 µM (inactive) | 33 µM (inactive) | 25.1 µM (inactive) | 22.7 µM (inactive) | 37.4 µM (inactive) | 28.6 µM (inactive) | 29.6 µM (inactive) | 22 µM (inactive) | 24 µM (inactive)
8 | CN(C)/C=N/[C@@H](C(=O)O)c1ccccc1 | > 100 µM (inactive) | > 100 µM (inactive) |  |  | > 100 µM (inactive) | > 100 µM (inactive) | > 100 µM (inactive) | > 100 µM (inactive) | > 100 µM (inactive) | > 100 µM (inactive) |  | > 100 µM (inactive) | > 100 µM (inactive) | > 100 µM (inactive) | > 100 µM (inactive) | > 100 µM (inactive) | > 100 µM (inactive) | > 100 µM (inactive) | > 100 µM (inactive) | > 100 µM (inactive)
9 | CN1c2ccccc2S(=O)(=O)n2c(COc3ccc(Cl)cc3)nnc21 | > 100 µM (inactive) | > 100 µM (inactive) | 55.1 µM (inactive) | 43.4 µM (inactive) | > 100 µM (inactive) | > 100 µM (inactive) | > 100 µM (inactive) | 77.1 µM (inactive) | > 100 µM (inactive) |  | > 100 µM (inactive) | 75.7 µM (inactive) | > 100 µM (inactive) | > 100 µM (inactive) | > 100 µM (inactive) | > 100 µM (inactive) | > 100 µM (inactive) | 50.6 µM (inactive) | > 100 µM (inactive) | > 100 µM (inactive)
10 | Cc1ccc(Cc2cc(N3CCN(c4cccc(Cl)c4)CC3)nnc2C)cc1 | > 100 µM (inactive) | 76.2 µM (inactive) | 84.7 µM (inactive) | 54 µM (inactive) | 88.5 µM (inactive) |  | 46.8 µM (inactive) | > 100 µM (inactive) |  |  | 44.4 µM (inactive) |  | 14.2 µM (inactive) |  | > 100 µM (inactive) | 34.4 µM (inactive) | 54.8 µM (inactive) | > 100 µM (inactive) | 31.6 µM (inactive) | 43.3 µM (inactive)
11 | CCSCCCN(CCCSCC)CCCSCC | > 100 µM (inactive) | > 100 µM (inactive) |  |  |  | 88.3 µM (inactive) | > 100 µM (inactive) | > 100 µM (inactive) | > 100 µM (inactive) | > 100 µM (inactive) | > 100 µM (inactive) | > 100 µM (inactive) | > 100 µM (inactive) | > 100 µM (inactive) | > 100 µM (inactive) |  | > 100 µM (inactive) | > 100 µM (inactive) | > 100 µM (inactive) | > 100 µM (inactive)
12 | COc1ccc(NC(=O)/C(=N/NC(N)=S)C2C(=O)NC(=S)NC2=O)c(OC)c1 | > 100 µM (inactive) | > 100 µM (inactive) |  | > 100 µM (inactive) | > 100 µM (inactive) | > 100 µM (inactive) | > 100 µM (inactive) | > 100 µM (inactive) | > 100 µM (inactive) |  | > 100 µM (inactive) | 62.2 µM (inactive) | > 100 µM (inactive) | > 100 µM (inactive) | > 100 µM (inactive) | > 100 µM (inactive) | > 100 µM (inactive) | > 100 µM (inactive) | > 100 µM (inactive) | > 100 µM (inactive)
13 | CN(C)C(=O)Oc1ccc(-c2cn3cc(NC(=O)c4ccccc4)ccc3n2)cc1 | > 100 µM (inactive) | 31.7 µM (inactive) | > 100 µM (inactive) |  | > 100 µM (inactive) | 70.8 µM (inactive) | > 100 µM (inactive) | > 100 µM (inactive) | 53 µM (inactive) | 29.3 µM (inactive) | 55.5 µM (inactive) | 99.5 µM (inactive) | 53.8 µM (inactive) | 17.2 µM (inactive) | > 100 µM (inactive) | > 100 µM (inactive) | > 100 µM (inactive) | 80.4 µM (inactive) | 87.3 µM (inactive) | > 100 µM (inactive)
14 | Cn1nc2ccc([N+](=O)[O-])c(Cn3nnc4ccccc43)c2n1 | > 100 µM (inactive) | > 100 µM (inactive) | > 100 µM (inactive) | 93.1 µM (inactive) | > 100 µM (inactive) | > 100 µM (inactive) |  | > 100 µM (inactive) | 82.8 µM (inactive) |  | 76.7 µM (inactive) | > 100 µM (inactive) | > 100 µM (inactive) | > 100 µM (inactive) | > 100 µM (inactive) | 87.9 µM (inactive) | > 100 µM (inactive) | > 100 µM (inactive) | > 100 µM (inactive) | 71 µM (inactive)
15 | COc1c(OC)c(O)c2c(=O)c(OC)c(-c3ccc4c(c3)OCO4)oc2c1O | > 100 µM (inactive) | > 100 µM (inactive) | 91.4 µM (inactive) | > 100 µM (inactive) | > 100 µM (inactive) | > 100 µM (inactive) | > 100 µM (inactive) | > 100 µM (inactive) | > 100 µM (inactive) |  | > 100 µM (inactive) | 55.5 µM (inactive) | 67 µM (inactive) | 40.1 µM (inactive) | > 100 µM (inactive) | > 100 µM (inactive) | > 100 µM (inactive) | > 100 µM (inactive) | 36.1 µM (inactive) | > 100 µM (inactive)
